Key:
[1] = molecular target: Mu-type opioid receptor (Homo sapiens, UniProt P35372); assay: biochemical; format: functional
[2] = molecular target: Cannabinoid receptor 1 (Homo sapiens, UniProt P21554)
[3] = molecular target: Gamma-aminobutyric acid receptor subunit alpha-1/alpha-2/beta-2/gamma-2 (Homo sapiens, UniProt P14867+P18507+P47869+P47870); format: functional, cell-based
[4] = molecular target: T1, 5-hydroxytryptamine receptor 1A (Homo sapiens, UniProt P08908)
T1 sequence (P08908 whole entry): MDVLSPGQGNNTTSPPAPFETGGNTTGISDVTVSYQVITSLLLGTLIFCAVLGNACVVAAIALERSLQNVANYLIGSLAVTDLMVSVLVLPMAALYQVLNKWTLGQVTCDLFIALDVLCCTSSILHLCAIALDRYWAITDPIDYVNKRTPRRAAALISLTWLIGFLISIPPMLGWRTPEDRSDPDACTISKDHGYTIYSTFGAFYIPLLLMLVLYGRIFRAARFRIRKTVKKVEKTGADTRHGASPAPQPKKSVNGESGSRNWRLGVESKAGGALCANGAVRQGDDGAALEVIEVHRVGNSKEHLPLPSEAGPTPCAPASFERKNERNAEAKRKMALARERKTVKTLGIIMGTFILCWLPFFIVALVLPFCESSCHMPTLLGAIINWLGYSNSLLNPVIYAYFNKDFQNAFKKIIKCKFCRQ

[5] = molecular target: T2, B1 bradykinin receptor (Homo sapiens, UniProt P46663)
T2 sequence (P46663 whole entry): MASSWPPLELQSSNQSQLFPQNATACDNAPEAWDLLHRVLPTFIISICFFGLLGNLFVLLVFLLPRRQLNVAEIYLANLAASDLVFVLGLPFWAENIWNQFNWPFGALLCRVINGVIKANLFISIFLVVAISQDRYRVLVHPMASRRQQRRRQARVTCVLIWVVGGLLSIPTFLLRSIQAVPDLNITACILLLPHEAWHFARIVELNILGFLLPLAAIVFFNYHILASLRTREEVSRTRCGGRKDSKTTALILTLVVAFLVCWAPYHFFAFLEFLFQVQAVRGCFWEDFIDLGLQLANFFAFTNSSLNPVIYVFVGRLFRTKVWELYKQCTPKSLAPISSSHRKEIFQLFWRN

[6] = molecular target: T3, Endothelin receptor type B (Homo sapiens, UniProt P24530)
T3 sequence (P24530 whole entry): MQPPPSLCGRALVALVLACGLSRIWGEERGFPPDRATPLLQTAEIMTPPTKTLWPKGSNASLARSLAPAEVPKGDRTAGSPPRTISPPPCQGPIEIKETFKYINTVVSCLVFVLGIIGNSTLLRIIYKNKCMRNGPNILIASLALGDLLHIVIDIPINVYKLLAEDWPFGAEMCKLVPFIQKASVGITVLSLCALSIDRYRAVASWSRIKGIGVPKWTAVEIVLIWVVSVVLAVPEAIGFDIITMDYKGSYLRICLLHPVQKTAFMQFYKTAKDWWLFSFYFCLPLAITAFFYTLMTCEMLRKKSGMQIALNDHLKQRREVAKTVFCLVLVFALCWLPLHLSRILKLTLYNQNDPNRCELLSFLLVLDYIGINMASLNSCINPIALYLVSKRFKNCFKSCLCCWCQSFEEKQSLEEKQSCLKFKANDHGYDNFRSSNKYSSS

[7] = molecular target: T4, Neuropeptide Y receptor type 2 (Homo sapiens, UniProt P49146)
T4 sequence (P49146 whole entry): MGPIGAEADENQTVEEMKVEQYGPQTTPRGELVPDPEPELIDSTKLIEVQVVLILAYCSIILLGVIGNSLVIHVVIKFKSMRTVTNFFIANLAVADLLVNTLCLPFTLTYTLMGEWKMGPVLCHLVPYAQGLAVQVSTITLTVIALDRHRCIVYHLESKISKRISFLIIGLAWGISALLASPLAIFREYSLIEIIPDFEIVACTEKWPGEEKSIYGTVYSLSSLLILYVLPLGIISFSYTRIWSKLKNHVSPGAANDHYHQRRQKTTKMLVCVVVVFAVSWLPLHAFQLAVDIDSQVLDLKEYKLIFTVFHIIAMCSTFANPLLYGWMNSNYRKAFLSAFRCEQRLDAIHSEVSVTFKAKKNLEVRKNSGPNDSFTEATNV

[8] = molecular target: T5, Corticotropin-releasing factor receptor 2 (Homo sapiens, UniProt Q13324)
T5 sequence (Q13324 whole entry): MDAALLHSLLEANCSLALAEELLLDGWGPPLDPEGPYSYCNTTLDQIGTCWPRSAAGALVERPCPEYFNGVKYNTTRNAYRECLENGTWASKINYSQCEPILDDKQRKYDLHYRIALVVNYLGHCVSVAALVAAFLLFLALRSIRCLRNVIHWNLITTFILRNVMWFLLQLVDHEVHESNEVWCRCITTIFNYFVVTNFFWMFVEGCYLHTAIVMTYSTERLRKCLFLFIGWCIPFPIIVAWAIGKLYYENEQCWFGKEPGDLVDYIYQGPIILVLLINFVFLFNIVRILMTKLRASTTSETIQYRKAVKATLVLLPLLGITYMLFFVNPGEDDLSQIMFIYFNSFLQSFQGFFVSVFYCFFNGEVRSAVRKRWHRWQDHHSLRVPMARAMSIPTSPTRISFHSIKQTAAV

[9] = molecular target: D(1A) dopamine receptor (Homo sapiens, UniProt P21728)
[10] = molecular target: Beta-2 adrenergic receptor (Homo sapiens, UniProt P07550); format: functional, cell-based
[11] = molecular target: 5-hydroxytryptamine receptor 2A (Homo sapiens, UniProt P28223); format: functional, cell-based

Measured: AC50
Further: assay procedure not described here.

Sequence of Cannabinoid receptor 1 (P21554 whole entry): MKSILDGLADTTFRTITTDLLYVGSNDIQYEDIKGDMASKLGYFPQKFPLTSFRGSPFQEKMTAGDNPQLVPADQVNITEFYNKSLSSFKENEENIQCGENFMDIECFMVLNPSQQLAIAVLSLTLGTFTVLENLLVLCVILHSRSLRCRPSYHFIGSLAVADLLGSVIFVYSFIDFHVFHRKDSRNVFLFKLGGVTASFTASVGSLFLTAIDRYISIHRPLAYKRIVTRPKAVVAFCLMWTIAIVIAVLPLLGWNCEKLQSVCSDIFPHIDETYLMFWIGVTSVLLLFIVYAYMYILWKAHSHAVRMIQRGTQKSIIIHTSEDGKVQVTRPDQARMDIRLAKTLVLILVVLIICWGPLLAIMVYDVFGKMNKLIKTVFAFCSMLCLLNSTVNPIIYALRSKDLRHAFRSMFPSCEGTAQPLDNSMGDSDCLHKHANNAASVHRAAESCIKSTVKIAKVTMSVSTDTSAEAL
Sequence of D(1A) dopamine receptor (P21728 whole entry): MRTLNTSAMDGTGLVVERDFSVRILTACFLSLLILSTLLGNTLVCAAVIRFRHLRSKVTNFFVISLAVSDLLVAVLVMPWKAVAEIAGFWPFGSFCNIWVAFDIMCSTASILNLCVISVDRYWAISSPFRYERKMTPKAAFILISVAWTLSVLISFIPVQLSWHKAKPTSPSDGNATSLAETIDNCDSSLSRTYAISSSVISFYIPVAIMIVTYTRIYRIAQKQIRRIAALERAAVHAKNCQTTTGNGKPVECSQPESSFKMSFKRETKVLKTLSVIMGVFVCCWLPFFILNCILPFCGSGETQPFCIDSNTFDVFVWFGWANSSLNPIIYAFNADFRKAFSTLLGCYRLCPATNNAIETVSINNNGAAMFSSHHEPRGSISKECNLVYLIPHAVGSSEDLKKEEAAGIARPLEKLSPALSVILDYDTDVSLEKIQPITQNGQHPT
Sequence of 5-hydroxytryptamine receptor 2A (P28223 whole entry): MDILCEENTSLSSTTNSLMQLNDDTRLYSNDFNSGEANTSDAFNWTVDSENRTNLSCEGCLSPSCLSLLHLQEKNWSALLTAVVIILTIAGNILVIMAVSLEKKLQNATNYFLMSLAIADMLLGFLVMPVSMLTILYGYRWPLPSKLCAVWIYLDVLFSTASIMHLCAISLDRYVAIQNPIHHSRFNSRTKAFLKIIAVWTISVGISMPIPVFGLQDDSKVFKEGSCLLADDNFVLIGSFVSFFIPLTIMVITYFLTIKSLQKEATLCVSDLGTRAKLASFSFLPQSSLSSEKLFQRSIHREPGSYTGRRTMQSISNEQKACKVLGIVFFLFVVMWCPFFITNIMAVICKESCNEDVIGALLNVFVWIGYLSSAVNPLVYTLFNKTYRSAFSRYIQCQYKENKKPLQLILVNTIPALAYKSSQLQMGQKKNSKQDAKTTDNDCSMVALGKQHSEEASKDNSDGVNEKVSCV
Sequence of Beta-2 adrenergic receptor (P07550 whole entry): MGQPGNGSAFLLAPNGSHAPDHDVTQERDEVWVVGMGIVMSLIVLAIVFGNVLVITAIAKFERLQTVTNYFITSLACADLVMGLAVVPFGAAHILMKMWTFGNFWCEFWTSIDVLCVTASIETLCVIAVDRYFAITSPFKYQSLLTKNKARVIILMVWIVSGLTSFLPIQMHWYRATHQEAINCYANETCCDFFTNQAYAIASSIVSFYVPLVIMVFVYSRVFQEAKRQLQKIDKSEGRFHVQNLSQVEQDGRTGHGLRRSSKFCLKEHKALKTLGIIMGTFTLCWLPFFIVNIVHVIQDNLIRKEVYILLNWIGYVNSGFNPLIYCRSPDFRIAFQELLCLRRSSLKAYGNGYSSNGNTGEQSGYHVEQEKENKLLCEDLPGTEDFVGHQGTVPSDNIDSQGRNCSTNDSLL
Sequence of Mu-type opioid receptor (P35372 whole entry): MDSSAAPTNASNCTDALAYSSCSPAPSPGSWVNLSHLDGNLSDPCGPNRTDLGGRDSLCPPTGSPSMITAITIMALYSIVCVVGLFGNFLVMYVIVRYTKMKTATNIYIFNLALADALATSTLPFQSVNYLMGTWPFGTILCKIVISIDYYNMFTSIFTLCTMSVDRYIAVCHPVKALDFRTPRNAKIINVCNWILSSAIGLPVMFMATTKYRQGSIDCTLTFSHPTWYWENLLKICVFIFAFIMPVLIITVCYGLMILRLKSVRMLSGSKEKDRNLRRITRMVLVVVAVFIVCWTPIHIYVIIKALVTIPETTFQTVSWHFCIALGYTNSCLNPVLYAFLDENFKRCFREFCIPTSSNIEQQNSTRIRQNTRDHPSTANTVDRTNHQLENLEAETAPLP
Sequence of Gamma-aminobutyric acid receptor subunit alpha-1/alpha-2/beta-2/gamma-2 (P14867 whole entry): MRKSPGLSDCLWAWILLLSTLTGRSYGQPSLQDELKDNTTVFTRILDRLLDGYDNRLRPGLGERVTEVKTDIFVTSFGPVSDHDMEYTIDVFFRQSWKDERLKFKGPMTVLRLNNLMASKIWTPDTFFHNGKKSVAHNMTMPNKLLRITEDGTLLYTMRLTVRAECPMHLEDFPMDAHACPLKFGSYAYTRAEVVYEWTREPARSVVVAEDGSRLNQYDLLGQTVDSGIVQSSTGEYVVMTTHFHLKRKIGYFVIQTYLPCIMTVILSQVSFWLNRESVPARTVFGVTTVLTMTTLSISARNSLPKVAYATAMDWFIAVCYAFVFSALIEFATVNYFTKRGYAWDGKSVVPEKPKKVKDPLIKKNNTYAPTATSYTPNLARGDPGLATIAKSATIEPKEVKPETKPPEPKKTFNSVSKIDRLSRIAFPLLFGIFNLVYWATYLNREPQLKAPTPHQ
Sequence of Gamma-aminobutyric acid receptor subunit alpha-1/alpha-2/beta-2/gamma-2 (P47870 whole entry): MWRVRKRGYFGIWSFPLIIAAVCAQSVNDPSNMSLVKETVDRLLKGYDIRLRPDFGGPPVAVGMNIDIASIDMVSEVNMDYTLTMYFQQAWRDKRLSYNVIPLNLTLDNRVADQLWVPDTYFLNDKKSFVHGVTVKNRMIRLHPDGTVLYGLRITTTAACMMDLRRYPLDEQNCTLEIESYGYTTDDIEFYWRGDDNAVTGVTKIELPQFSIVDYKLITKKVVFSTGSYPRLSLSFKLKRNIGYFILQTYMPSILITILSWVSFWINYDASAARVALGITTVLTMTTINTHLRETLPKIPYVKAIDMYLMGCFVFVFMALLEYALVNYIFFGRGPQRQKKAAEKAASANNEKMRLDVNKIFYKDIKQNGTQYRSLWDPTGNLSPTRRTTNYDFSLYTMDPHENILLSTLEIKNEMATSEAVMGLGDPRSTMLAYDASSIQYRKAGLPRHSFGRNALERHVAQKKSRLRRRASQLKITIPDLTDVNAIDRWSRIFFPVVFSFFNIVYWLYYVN
Sequence of Gamma-aminobutyric acid receptor subunit alpha-1/alpha-2/beta-2/gamma-2 (P18507 whole entry): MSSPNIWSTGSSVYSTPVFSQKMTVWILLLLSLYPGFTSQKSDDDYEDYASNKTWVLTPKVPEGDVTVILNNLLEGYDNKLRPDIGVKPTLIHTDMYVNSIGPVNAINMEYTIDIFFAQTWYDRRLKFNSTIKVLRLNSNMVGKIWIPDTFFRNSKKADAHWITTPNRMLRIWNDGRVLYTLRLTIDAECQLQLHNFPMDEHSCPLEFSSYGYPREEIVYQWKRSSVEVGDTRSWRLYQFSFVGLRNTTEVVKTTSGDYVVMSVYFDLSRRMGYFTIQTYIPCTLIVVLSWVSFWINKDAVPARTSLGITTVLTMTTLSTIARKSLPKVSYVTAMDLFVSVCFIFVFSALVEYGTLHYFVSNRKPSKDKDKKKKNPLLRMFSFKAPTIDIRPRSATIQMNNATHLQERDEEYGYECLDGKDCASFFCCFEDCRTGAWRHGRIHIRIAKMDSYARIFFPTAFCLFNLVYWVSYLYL
Sequence of Gamma-aminobutyric acid receptor subunit alpha-1/alpha-2/beta-2/gamma-2 (P47869 whole entry): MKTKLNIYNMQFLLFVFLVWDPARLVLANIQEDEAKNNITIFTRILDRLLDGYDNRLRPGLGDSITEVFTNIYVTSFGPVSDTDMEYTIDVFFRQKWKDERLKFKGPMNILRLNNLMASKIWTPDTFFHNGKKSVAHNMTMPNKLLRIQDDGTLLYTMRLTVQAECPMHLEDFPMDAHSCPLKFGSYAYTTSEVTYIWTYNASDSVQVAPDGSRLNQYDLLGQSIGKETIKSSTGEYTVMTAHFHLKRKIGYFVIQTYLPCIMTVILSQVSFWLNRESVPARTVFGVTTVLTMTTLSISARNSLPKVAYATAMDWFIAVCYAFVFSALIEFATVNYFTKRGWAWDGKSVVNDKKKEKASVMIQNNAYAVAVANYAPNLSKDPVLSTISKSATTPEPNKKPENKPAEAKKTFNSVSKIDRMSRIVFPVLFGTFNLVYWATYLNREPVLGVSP

N=C(N)NC(=O)Cc1c(Cl)cccc1Cl [GUANFACINE]
> 30 µM: [1] | [3]
> 10 µM: [2]
11.5 µM: [4]

CCN(CC)CC(=O)Nc1c(C)cccc1C [LIDOCAINE]
> 30 µM: [5] | [6] | [7] | [8]

CN1C(=O)CN=C(c2ccccc2F)c2cc([N+](=O)[O-])ccc21 [FLUNITRAZEPAM]
> 10 µM: [9] | [2] | [4]
> 30 µM: [5] | [6] | [7] | [8]

Oc1cc(O)c2c(c1)O[C@H](c1ccc(O)c(O)c1)[C@@H](O)C2 [CIANIDANOL]
> 10 µM: [9] | [2] | [4]
not listed: [1] | [3]
> 30 µM: all other assays above

O=C(O[C@H]1C[N+]2(CCCOc3ccccc3)CCC1CC2)C(O)(c1cccs1)c1cccs1 [ACLIDINIUM BROMIDE]
> 10 µM: [9] | [2] | [4]
> 30 µM: [5] | [6] | [7] | [8]

O=C1CN=C(c2ccccc2Cl)c2cc([N+](=O)[O-])ccc2N1 [CLONAZEPAM]
> 10 µM: [9] | [2] | [4]
> 30 µM: [5] | [10] | [6] | [7] | [8]

CC1NCCOC1c1ccccc1 (configuration not stated) [PHENMETRAZINE]
> 10 µM: [9] | [2] | [4]
not listed: [1] | [3]
> 30 µM: all other assays above

Cc1ccc(-c2ncc(Cl)cc2-c2ccc(S(C)(=O)=O)cc2)cn1 [ETORICOXIB]
> 10 µM: [9] | [2] | [4]
not listed: [1] | [3]
> 30 µM: all other assays above

Cc1cnc(Nc2ccc(OCCN3CCCC3)cc2)nc1Nc1cccc(S(=O)(=O)NC(C)(C)C)c1 [FEDRATINIB]
> 10 µM: [2] | [4]

CC(C)(N)Cc1ccccc1 [PHENTERMINE]
> 10 µM: [9] | [2] | [4]
not listed: [1] | [3]
> 30 µM: all other assays above

Cc1nnc2n1-c1ccc(Cl)cc1C(c1ccccc1)=NC2 [ALPRAZOLAM]
> 30 µM: [5] | [10] | [6] | [7] | [8]
3.35 µM: [2]
> 10 µM: [9] | [4]

CCOC(=O)C1=C(C)NC(C)=C(C(=O)OC)C1c1cccc(Cl)c1Cl (configuration not stated) [FELODIPINE]
13.4 µM: [2]
> 10 µM: [9] | [4]
> 30 µM: [5] | [6] | [7] | [8]

COc1ccc2c3c1O[C@H]1C(=O)CC[C@H]4[C@@H](C2)N(C)CC[C@]314 [HYDROCODONE]
> 10 µM: [9] | [4]
not listed: [1] | [2] | [3]
> 30 µM: all other assays above

CN1C2CCCC1CC(NC(=O)c1nn(C)c3ccccc13)C2 (configuration not stated) [GRANISETRON]
> 30 µM: [5] | [10] | [6] | [7] | [8]
> 10 µM: [9] | [2] | [4]

CCN(CC)C(C)C(=O)c1ccccc1 (configuration not stated) [DIETHYLPROPION]
> 30 µM: [5] | [10] | [6] | [7] | [8]
> 10 µM: [9] | [2] | [4]

Nc1cc(N2CCCCC2)nc(N)[n+]1[O-] [MINOXIDIL]
> 30 µM: [10]
> 10 µM: [2] | [4]

CC(NC(C)(C)C)C(=O)c1cccc(Cl)c1 (configuration not stated) [BUPROPION]
> 30 µM: [5] | [10] | [6] | [7] | [8]
> 10 µM: [9] | [2] | [4]

CC1=C(CC(=O)O)c2cc(F)ccc2/C1=C\c1ccc([S+](C)[O-])cc1 (configuration not stated)
> 10 µM: [9] | [4]
> 30 µM: [5] | [6] | [7] | [8]

CC1Cc2ccccc2N1NC(=O)c1ccc(Cl)c(S(N)(=O)=O)c1 (configuration not stated) [INDAPAMIDE]
> 10 µM: [2] | [4]
> 30 µM: [10]

Source: ChEMBL document CHEMBL5291721, “A preclinical secondary pharmacology resource illuminates target-adverse drug reaction associations of marketed drugs” (Nat Commun, 2023)
